In article PMC5218480 (PLoS ONE, 2017):

Tested on: MV-4-11 cells
Test: Gene expression microarray analysis (Affymetrix PrimeView) and GSEA
Assay type: cell-based, human
Set-up: RFU PODN (11730768_x_at) / Fold change /veh PODN (11730768_x_at) / RFU LINC00158 (11744669_a_at) / Fold change /veh LINC00158 (11744669_a_at) / RFU DUSP10 (11751237_a_at) / Fold change /veh DUSP10 (11751237_a_at) / RFU ID3 (11757404_x_at) / Fold change /veh ID3 (11757404_x_at) / RFU PLEKHG5 (11737974_s_at) / Fold change /veh PLEKHG5 (11737974_s_at) / RFU LRRC4B (11730491_at) / Fold change /veh LRRC4B (11730491_at) / RFU GIMAP4 (11747438_a_at) / Fold change /veh GIMAP4 (11747438_a_at) / RFU KRT8 (11758183_x_at) / Fold change /veh KRT8 (11758183_x_at) / RFU CNN1 (11734310_a_at) / Fold change /veh CNN1 (11734310_a_at) / RFU VPS37D (11726825_at) / Fold change /veh VPS37D (11726825_at) / RFU C10orf10 (11716522_x_at) / Fold change /veh C10orf10 (11716522_x_at) / RFU KIR2DL2 /// KIR2DL4 /// KIR2DL5A /// KIR2DL5B /// KIR2DS1 /// KIR2DS2 /// KIR2DS3 /// KIR2DS4 /// KIR3DL3 /// KIR3DL3 /// KIR3DS1 (11738374_at) / Fold change /veh KIR2DL2 /// KIR2DL4 /// KIR2DL5A /// KIR2DL5B /// KIR2DS1 /// KIR2DS2 /// KIR2DS3 /// KIR2DS4 /// KIR3DL3 /// KIR3DL3 /// KIR3DS1 (11738374_at) / RFU C1QL1 (11718748_at) / Fold change /veh C1QL1 (11718748_at) / RFU TMPRSS4 (11747572_a_at) / Fold change /veh TMPRSS4 (11747572_a_at) / RFU HAMP (11756126_x_at) / Fold change /veh HAMP (11756126_x_at) / RFU RNFT2 (11725882_a_at) / Fold change /veh RNFT2 (11725882_a_at) / RFU NR4A2 (11747474_a_at) / Fold change /veh NR4A2 (11747474_a_at) / RFU ABCC12 (11746883_a_at) / Fold change /veh ABCC12 (11746883_a_at) / RFU TMEM136 (11760407_x_at) / Fold change /veh TMEM136 (11760407_x_at) / RFU CLDN22 /// WWC2 (11732394_at) / Fold change /veh CLDN22 /// WWC2 (11732394_at) / RFU HLA-DPB1 (11760878_x_at) / Fold change /veh HLA-DPB1 (11760878_x_at) / RFU SPINT1 (11716480_a_at) / Fold change /veh SPINT1 (11716480_a_at) / RFU GAP43 (11754022_s_at) / Fold change /veh GAP43 (11754022_s_at) / RFU A4GNT (11735810_at) / Fold change /veh A4GNT (11735810_at) / RFU PRB3 (11715151_x_at) / Fold change /veh PRB3 (11715151_x_at) / RFU TUBB4B (11761932_at) / Fold change /veh TUBB4B (11761932_at) / RFU CAPN14 (11732068_a_at) / Fold change /veh CAPN14 (11732068_a_at) / RFU TMCC2 (11721928_a_at) / Fold change /veh TMCC2 (11721928_a_at) / RFU IRGQ (11745062_a_at) / Fold change /veh IRGQ (11745062_a_at) / RFU FAM174B (11720279_a_at) / Fold change /veh FAM174B (11720279_a_at) / RFU TMPRSS4 (11748680_a_at) / Fold change /veh TMPRSS4 (11748680_a_at) / RFU FAM212B (11763350_a_at) / Fold change /veh FAM212B (11763350_a_at) / RFU PLEKHG5 (11743358_a_at) / Fold change /veh PLEKHG5 (11743358_a_at) / RFU ZSCAN30 (11745921_a_at) / Fold change /veh ZSCAN30 (11745921_a_at) / RFU CMKLR1 (11741424_a_at) / Fold change /veh CMKLR1 (11741424_a_at) / RFU LOC101060620 /// MAPK8IP1 (11723275_at) / Fold change /veh LOC101060620 /// MAPK8IP1 (11723275_at) / RFU SPTSSB (11747773_x_at) / Fold change /veh SPTSSB (11747773_x_at) / RFU PRSS12 (11739890_at) / Fold change /veh PRSS12 (11739890_at) / RFU BIN1 (11741810_x_at) / Fold change /veh BIN1 (11741810_x_at) / RFU WNT11 (11732464_a_at) / Fold change /veh WNT11 (11732464_a_at) / RFU C10orf10 (11716521_a_at) / Fold change /veh C10orf10 (11716521_a_at) / RFU C5orf56 (11738089_at) / Fold change /veh C5orf56 (11738089_at) / RFU CYB561 (11721691_x_at) / Fold change /veh CYB561 (11721691_x_at) / RFU ANKRD19P (11752326_a_at) / Fold change /veh ANKRD19P (11752326_a_at) / RFU OR2T12 /// OR2T33 /// OR2T8 (11738714_s_at) / Fold change /veh OR2T12 /// OR2T33 /// OR2T8 (11738714_s_at) / RFU VCAN (11748164_a_at) / Fold change /veh VCAN (11748164_a_at) / RFU JSRP1 (11732532_at) / Fold change /veh JSRP1 (11732532_at) / RFU KRTAP10-11 (11738290_x_at) / Fold change /veh KRTAP10-11 (11738290_x_at) / RFU MYO3A (11730013_a_at) / Fold change /veh MYO3A (11730013_a_at) / RFU EBF3 (11725865_a_at) / Fold change /veh EBF3 (11725865_a_at) / RFU CAMK2N1 (11719241_x_at) / Fold change /veh CAMK2N1 (11719241_x_at) / RFU C5orf56 (11738088_a_at) / Fold change /veh C5orf56 (11738088_a_at) / RFU OLFML3 (11715873_a_at) / Fold change /veh OLFML3 (11715873_a_at) / RFU LOC100653217 /// NTM (11731650_a_at) / Fold change /veh LOC100653217 /// NTM (11731650_a_at) / RFU MAPK11 (11762145_a_at) / Fold change /veh MAPK11 (11762145_a_at) / RFU FIZ1 (11724087_x_at) / Fold change /veh FIZ1 (11724087_x_at) / RFU OASL (11726364_x_at) / Fold change /veh OASL (11726364_x_at) / RFU SOX15 (11748057_x_at) / Fold change /veh SOX15 (11748057_x_at) / RFU CD79A (11719716_a_at) / Fold change /veh CD79A (11719716_a_at) / RFU HIST1H1D (11736915_at) / Fold change /veh HIST1H1D (11736915_at) / RFU CASKIN2 (11723855_a_at) / Fold change /veh CASKIN2 (11723855_a_at) / RFU LOC730098 (11760151_x_at) / Fold change /veh LOC730098 (11760151_x_at) / RFU OR4N2 (11742367_at) / Fold change /veh OR4N2 (11742367_at) / RFU PRRT2 (11749266_a_at) / Fold change /veh PRRT2 (11749266_a_at) / RFU SNX32 (11753110_a_at) / Fold change /veh SNX32 (11753110_a_at) / RFU CDHR5 (11726645_a_at) / Fold change /veh CDHR5 (11726645_a_at) / RFU RCAN1 (11760418_a_at) / Fold change /veh RCAN1 (11760418_a_at) / RFU FAM167A (11723789_a_at) / Fold change /veh FAM167A (11723789_a_at) / RFU FAM26E (11764081_at) / Fold change /veh FAM26E (11764081_at) / RFU ISYNA1 (11749810_s_at) / Fold change /veh ISYNA1 (11749810_s_at) / RFU ACY1 (11761880_at) / Fold change /veh ACY1 (11761880_at) / RFU 11764098_at / Fold change /veh 11764098_at / RFU SAMD14 (11745864_x_at) / Fold change /veh SAMD14 (11745864_x_at) / RFU NPB (11741838_a_at) / Fold change /veh NPB (11741838_a_at) / RFU TMPRSS6 (11731388_a_at) / Fold change /veh TMPRSS6 (11731388_a_at) / RFU KRTAP10-2 (11738614_at) / Fold change /veh KRTAP10-2 (11738614_at) / RFU ARHGAP8 /// PRR5-ARHGAP8 (11727945_x_at) / Fold change /veh ARHGAP8 /// PRR5-ARHGAP8 (11727945_x_at) / RFU KRTAP5-7 /// NADSYN1 (11734609_at) / Fold change /veh KRTAP5-7 /// NADSYN1 (11734609_at) / RFU RASL12 (11751679_a_at) / Fold change /veh RASL12 (11751679_a_at) / RFU CDKN2B (11736163_a_at) / Fold change /veh CDKN2B (11736163_a_at) / RFU PRF1 (11729649_at) / Fold change /veh PRF1 (11729649_at) / RFU, ZNF638 /// ZNF638-IT1 / Fold change vs veh, ZNF638 /// ZNF638-IT1 / RFU, PANK3 / Fold change vs veh, PANK3 / RFU, SH3YL1 / Fold change vs veh, SH3YL1 / RFU, ZEB2 / Fold change vs veh, ZEB2 / RFU, NRIP1 / Fold change vs veh, NRIP1 / RFU, PTTG1IP / Fold change vs veh, PTTG1IP / RFU, CAPN2 / Fold change vs veh, CAPN2 / RFU, MED14 / Fold change vs veh, MED14 / RFU, SNORA58 / Fold change vs veh, SNORA58 / RFU, C1orf63 / Fold change vs veh, C1orf63 / RFU, LRRFIP1 / Fold change vs veh, LRRFIP1 / RFU, NDUFAF7 / Fold change vs veh, NDUFAF7 / RFU, SLC12A2 / Fold change vs veh, SLC12A2 / RFU, IBTK / Fold change vs veh, IBTK / RFU, ESF1 / Fold change vs veh, ESF1 / Fold change vs veh, TMEM50B / RFU, TAOK1 / Fold change vs veh, TAOK1 / RFU, ACBD3 / Fold change vs veh, ACBD3 / RFU, TMA16 / Fold change vs veh, TMA16 / RFU, RWDD3 / Fold change vs veh, RWDD3 / RFU, BCAT1 / Fold change vs veh, BCAT1 / RFU, EDEM3 / Fold change vs veh, EDEM3 / RFU, TMEM33 / Fold change vs veh, TMEM33 / RFU, WDR75 / Fold change vs veh, WDR75 / RFU, AHCTF1 / Fold change vs veh, AHCTF1 / RFU, TFRC / Fold change vs veh, TFRC / RFU, ZDHHC17 / Fold change vs veh, ZDHHC17 / RFU, NOM1 / Fold change vs veh, NOM1 / RFU, ARL8B / Fold change vs veh, ARL8B / RFU, ZBTB11 / Fold change vs veh, ZBTB11 / RFU, TAMM41 / Fold change vs veh, TAMM41 / RFU, KIAA1704 /// LOC100996395 / Fold change vs veh, KIAA1704 /// LOC100996395 / RFU, ING1 / Fold change vs veh, ING1 / RFU, TRMT61B / Fold change vs veh, TRMT61B / RFU, FUBP3 / Fold change vs veh, FUBP3 / RFU, TP53 / Fold change vs veh, TP53 / RFU, TNKS2 / Fold change vs veh, TNKS2 / RFU, ZFP14 / Fold change vs veh, ZFP14 / RFU, ACTR2 / Fold change vs veh, ACTR2 / RFU, PPP3R1 / Fold change vs veh, PPP3R1 / RFU, PIK3R1 / Fold change vs veh, PIK3R1 / RFU, HNRNPA1 / Fold change vs veh, HNRNPA1 / RFU, RNF170 / Fold change vs veh, RNF170 / RFU, ZNF28 / Fold change vs veh, ZNF28 / RFU, RNGTT / Fold change vs veh, RNGTT / RFU, OGT / Fold change vs veh, OGT / RFU, BRD1 / Fold change vs veh, BRD1 / RFU, MARS / Fold change vs veh, MARS / RFU, ZNF655 / Fold change vs veh, ZNF655 / RFU, FAHD1 / Fold change vs veh, FAHD1 / RFU, BDP1 / Fold change vs veh, BDP1 / RFU, LRRCC1 / Fold change vs veh, LRRCC1 / RFU, ARID1A / Fold change vs veh, ARID1A / RFU, ZNF146 / Fold change vs veh, ZNF146 / RFU, ZNF330 / Fold change vs veh, ZNF330 / RFU, GPN3 / Fold change vs veh, GPN3 / RFU, C9orf123 / Fold change vs veh, C9orf123 / RFU, N4BP2L2 / Fold change vs veh, N4BP2L2 / RFU, ARFIP1 / Fold change vs veh, ARFIP1 / RFU, FAM179B / Fold change vs veh, FAM179B / RFU, BCL10 / Fold change vs veh, BCL10 / RFU, UHRF1BP1L / Fold change vs veh, UHRF1BP1L / RFU, BET1 / Fold change vs veh, BET1 / RFU, CNOT2 / Fold change vs veh, CNOT2 / RFU, ZNF268 / Fold change vs veh, ZNF268 / Fold change vs veh, ZNF507 / RFU, DGCR2 / Fold change vs veh, DGCR2 / RFU, WDSUB1 / Fold change vs veh, WDSUB1 / Fold change vs veh, HSP90B1 /// MIR3652 / RFU, ADSS / Fold change vs veh, ADSS / RFU, GK / Fold change vs veh, GK / RFU, ZNF148 / Fold change vs veh, ZNF148 / RFU, TAF9 / Fold change vs veh, TAF9 / RFU, SLC1A5 / Fold change vs veh, SLC1A5 / RFU, SLMO2 / Fold change vs veh, SLMO2 / RFU, ABCC4 / Fold change vs veh, ABCC4 / RFU, LOC101060439 /// RAP1B / Fold change vs veh, LOC101060439 /// RAP1B / RFU, RFX7 / Fold change vs veh, RFX7 / RFU, GTPBP10 / Fold change vs veh, GTPBP10 / RFU, CNEP1R1 / Fold change vs veh, CNEP1R1 / RFU, BIVM-ERCC5 /// ERCC5 / Fold change vs veh, BIVM-ERCC5 /// ERCC5 / RFU, ILF3 / Fold change vs veh, ILF3 / RFU 11762660_at / Fold change /veh 11762660_at / RFU VCAN (11757783_s_at) / Fold change /veh VCAN (11757783_s_at) / RFU DDX43 (11728927_at) / Fold change /veh DDX43 (11728927_at) / RFU KRT8 (11758188_x_at) / Fold change /veh KRT8 (11758188_x_at) / RFU NKD1 (11759106_at) / Fold change /veh NKD1 (11759106_at) / RFU SRD5A1 (11742802_a_at) / Fold change /veh SRD5A1 (11742802_a_at) / RFU TPSAB1 /// TPSB2 (11721975_s_at) / Fold change /veh TPSAB1 /// TPSB2 (11721975_s_at) / RFU GSTM3 (11746129_a_at) / Fold change /veh GSTM3 (11746129_a_at) / RFU IL23R (11737362_x_at) / Fold change /veh IL23R (11737362_x_at) / RFU TMEM51 (11727254_a_at) / Fold change /veh TMEM51 (11727254_a_at) / RFU PIWIL2 (11732686_x_at) / Fold change /veh PIWIL2 (11732686_x_at) / RFU ORM1 (11744905_x_at) / Fold change /veh ORM1 (11744905_x_at) / RFU CCDC152 (11743942_at) / Fold change /veh CCDC152 (11743942_at) / RFU ECM1 (11717891_a_at) / Fold change /veh ECM1 (11717891_a_at) / RFU IL23R (11748794_a_at) / Fold change /veh IL23R (11748794_a_at) / RFU TNFAIP8L3 (11732012_x_at) / Fold change /veh TNFAIP8L3 (11732012_x_at) / RFU MBOAT4 (11741988_at) / Fold change /veh MBOAT4 (11741988_at) / RFU 11764193_at / Fold change /veh 11764193_at / RFU TMEM53 (11763286_at) / Fold change /veh TMEM53 (11763286_at) / RFU MAGEB2 (11727129_at) / Fold change /veh MAGEB2 (11727129_at) / RFU TMEM200A (11744735_a_at) / Fold change /veh TMEM200A (11744735_a_at) / RFU CCDC152 (11751479_a_at) / Fold change /veh CCDC152 (11751479_a_at) / RFU FAM211A (11726209_a_at) / Fold change /veh FAM211A (11726209_a_at) / RFU RGS16 (11746705_a_at) / Fold change /veh RGS16 (11746705_a_at) / RFU VCAN (11755009_s_at) / Fold change /veh VCAN (11755009_s_at) / RFU RHOB (11743442_s_at) / Fold change /veh RHOB (11743442_s_at) / RFU RGS16 (11720943_a_at) / Fold change /veh RGS16 (11720943_a_at) / RFU RGS16 (11720944_at) / Fold change /veh RGS16 (11720944_at) / RFU, VPS4B / Fold change vs veh, VPS4B / RFU, CREB1 / Fold change vs veh, CREB1 / RFU, DNAJC13 / Fold change vs veh, DNAJC13 / RFU, GNAQ / Fold change vs veh, GNAQ / RFU, CDK5R1 / Fold change vs veh, CDK5R1 / RFU, ZRANB3 / Fold change vs veh, ZRANB3 / RFU, CUL4A / Fold change vs veh, CUL4A / RFU, CCNY / Fold change vs veh, CCNY / RFU, UFL1 / Fold change vs veh, UFL1 / RFU, COG3 / Fold change vs veh, COG3 / RFU, DIAPH2 / Fold change vs veh, DIAPH2 / RFU, SKA2 / Fold change vs veh, SKA2 / RFU, AFF3 / Fold change vs veh, AFF3 / RFU, LMF1 / Fold change vs veh, LMF1 / RFU, IPO11 / Fold change vs veh, IPO11 / RFU, DFFB / Fold change vs veh, DFFB / RFU, FOXP1 / Fold change vs veh, FOXP1 / RFU, CARD8 / Fold change vs veh, CARD8 / RFU, STRN3 / Fold change vs veh, STRN3 / RFU, ADK / Fold change vs veh, ADK / RFU, RASSF2 / Fold change vs veh, RASSF2 / RFU, WIPF1 / Fold change vs veh, WIPF1 / RFU, LARP1B / Fold change vs veh, LARP1B / RFU, RASA1 / Fold change vs veh, RASA1 / RFU, RB1 / Fold change vs veh, RB1 / RFU, PPFIA1 / Fold change vs veh, PPFIA1 / RFU, MAT2A / Fold change vs veh, MAT2A / RFU, CCT5 / Fold change vs veh, CCT5 / RFU, WDR92 / Fold change vs veh, WDR92 / RFU, CUX1 / Fold change vs veh, CUX1 / RFU, TTC7A / Fold change vs veh, TTC7A / RFU, TMEM135 / Fold change vs veh, TMEM135 / RFU, DEPTOR / Fold change vs veh, DEPTOR / RFU, CPM / Fold change vs veh, CPM / RFU, DNAJB6 / Fold change vs veh, DNAJB6 / RFU, CACNA2D3 / Fold change vs veh, CACNA2D3 / RFU, DTX4 / Fold change vs veh, DTX4 / RFU, TFCP2 / Fold change vs veh, TFCP2 / RFU, GMCL1 /// GMCL1P1 / Fold change vs veh, GMCL1 /// GMCL1P1 / RFU, AEBP2 / Fold change vs veh, AEBP2 / RFU, SNHG1 /// SNORD22 /// SNORD25 /// SNORD26 /// SNORD27 /// SNORD28 /// SNORD29 /// SNORD31 / Fold change vs veh, SNHG1 /// SNORD22 /// SNORD25 /// SNORD26 /// SNORD27 /// SNORD28 /// SNORD29 /// SNORD31 / Fold change (Aza/veh), C12orf56 (ProbeSet 11735607_a_at) / Fold change (ACY-1035/veh), C12orf56 (ProbeSet 11735607_a_at) / Fold change (Aza/veh), FGFR1OP (ProbeSet 11751329_s_at) / Fold change (ACY-1035/veh), FGFR1OP (ProbeSet 11751329_s_at) / Fold change (Aza/veh), VPS36 (ProbeSet 11739960_a_at) / Fold change (ACY-1035/veh), VPS36 (ProbeSet 11739960_a_at) / RFU SYPL1 (11715823_x_at) / Fold change /veh SYPL1 (11715823_x_at) / RFU IGFBP7 (11715501_s_at) / Fold change /veh IGFBP7 (11715501_s_at) / RFU REEP3 (11722064_at) / Fold change /veh REEP3 (11722064_at) / RFU IGLL1 (11728026_x_at) / Fold change /veh IGLL1 (11728026_x_at): dose or concentration left out as unconfirmed
Details: MV-4-11 cells, 48 hours

## Nc1ncn([C@@H]2O[C@H](CO)[C@@H](O)[C@H]2O)c(=O)n1 [azacitidine]
  Fold change /veh ORM1 (11744905_x_at): 1.26
